Test results published in ChEMBL document CHEMBL5038625, “Application of the dual-tail approach for the design and synthesis of novel Thiopyrimidine-Benzenesulfonamide hybrids as selective carbonic anhydrase inhibitors” (Eur J Med Chem, 2022).

Key:
[1] = test system: M14; assay: Antiproliferative activity against human M14 cells assessed as cell growth inhibition at 10 uM incubated for 24 hrs by sulforhodamine B assay; assay type: functional; conditions: read-out: GI
[2] = test system: OVCAR-4; assay: Antiproliferative activity against human OVCAR-4 cells assessed as cell growth inhibition at 10 uM incubated for 24 hrs by sulforhodamine B assay; assay type: functional; conditions: read-out: GI
[3] = test system: SF-295; assay: Antiproliferative activity against human SF-295 cells assessed as cell growth inhibition at 10 uM incubated for 24 hrs by sulforhodamine B assay; assay type: functional; conditions: read-out: GI
[4] = test system: SK-MEL-5; assay: Antiproliferative activity against human SK-MEL-5 cells assessed as cell growth inhibition at 10 uM incubated for 24 hrs by sulforhodamine B assay; assay type: functional; conditions: read-out: GI
[5] = test system: MDA-MB-231; assay: Antiproliferative activity against human MDA-MB-231 cells assessed as reduction in cell viability incubated for 24 hrs by sulforhodamine B assay; assay type: functional, cell-based; conditions: MDA-MB-231, 24 h
[6] = test system: SN12C; assay: Antiproliferative activity against human SN12C cells assessed as cell growth inhibition at 10 uM incubated for 24 hrs by sulforhodamine B assay; assay type: functional; conditions: read-out: GI
[7] = test system: MCF7; assay: Antiproliferative activity against human MCF7 cells assessed as cell growth inhibition at 10 uM incubated for 24 hrs by sulforhodamine B assay; assay type: functional; conditions: read-out: GI
[8] = test system: KM12; assay: Antiproliferative activity against human KM12 cells assessed as cell growth inhibition at 10 uM incubated for 24 hrs by sulforhodamine B assay; assay type: functional; conditions: read-out: GI
[9] = test system: K562; assay: Antiproliferative activity against human K562 cells assessed as cell growth inhibition at 10 uM incubated for 24 hrs by sulforhodamine B assay; assay type: functional; conditions: read-out: GI
[10] = test system: BT-549; assay: Antiproliferative activity against human BT-549 cells assessed as cell growth inhibition at 10 uM incubated for 24 hrs by sulforhodamine B assay; assay type: functional; conditions: read-out: GI
[11] = test system: MDA-MB-435; assay: Antiproliferative activity against human MDA-MB-435 cells assessed as cell growth inhibition at 10 uM incubated for 24 hrs by sulforhodamine B assay; assay type: functional; conditions: read-out: GI
[12] = test system: ACHN; assay: Antiproliferative activity against human ACHN cells assessed as cell growth inhibition at 10 uM incubated for 24 hrs by sulforhodamine B assay; assay type: functional; conditions: read-out: GI
[13] = test system: NCI-H226; assay: Antiproliferative activity against human NCI-H226 cells assessed as cell growth inhibition at 10 uM incubated for 24 hrs by sulforhodamine B assay; assay type: functional; conditions: read-out: GI
[14] = test system: RPMI-8226; assay: Antiproliferative activity against human RPMI-8226 cells assessed as cell growth inhibition at 10 uM incubated for 24 hrs by sulforhodamine B assay; assay type: functional; conditions: read-out: GI
[15] = test system: A549; assay: Antiproliferative activity against human A549 cells assessed as cell growth inhibition at 10 uM incubated for 24 hrs by sulforhodamine B assay; assay type: functional; conditions: read-out: GI
[16] = test system: SNB-19; assay: Antiproliferative activity against human SNB-19 cells assessed as cell growth inhibition at 10 uM incubated for 24 hrs by sulforhodamine B assay; assay type: functional; conditions: read-out: GI
[17] = test system: PC-3; assay: Antiproliferative activity against human PC-3 cells assessed as cell growth inhibition at 10 uM incubated for 24 hrs by sulforhodamine B assay; assay type: functional; conditions: read-out: GI
[18] = test system: SF-268; assay: Antiproliferative activity against human SF-268 cells assessed as cell growth inhibition at 10 uM incubated for 24 hrs by sulforhodamine B assay; assay type: functional; conditions: read-out: GI
[19] = test system: UO-31; assay: Antiproliferative activity against human UO-31 cells assessed as cell growth inhibition at 10 uM incubated for 24 hrs by sulforhodamine B assay; assay type: functional; conditions: read-out: GI
[20] = test system: SW-620; assay: Antiproliferative activity against human SW-620 cells assessed as cell growth inhibition at 10 uM incubated for 24 hrs by sulforhodamine B assay; assay type: functional; conditions: read-out: GI
[21] = test system: T47D; assay: Antiproliferative activity against human T47D cells assessed as reduction in cell viability incubated for 24 hrs by sulforhodamine B assay; assay type: functional, cell-based
[22] = test system: MOLT-4; assay: Antiproliferative activity against human MOLT-4 cells assessed as cell growth inhibition at 10 uM incubated for 24 hrs by sulforhodamine B assay; assay type: functional; conditions: read-out: GI
[23] = test system: IGROV-1; assay: Antiproliferative activity against human IGROV-1 cells assessed as cell growth inhibition at 10 uM incubated for 24 hrs by sulforhodamine B assay; assay type: functional; conditions: read-out: GI
[24] = test system: CAKI-1; assay: Antiproliferative activity against human CAKI-1 cells assessed as cell growth inhibition at 10 uM incubated for 24 hrs by sulforhodamine B assay; assay type: functional; conditions: read-out: GI
[25] = test system: OVCAR-8; assay: Antiproliferative activity against human OVCAR-8 cells assessed as cell growth inhibition at 10 uM incubated for 24 hrs by sulforhodamine B assay; assay type: functional; conditions: read-out: GI
[26] = test system: DU-145; assay: Antiproliferative activity against human DU-145 cells assessed as cell growth inhibition at 10 uM incubated for 24 hrs by sulforhodamine B assay; assay type: functional; conditions: read-out: GI

`Cc1ccc(-c2nc(SCC(=O)c3ccccc3)nc(Nc3ccc(S(N)(=O)=O)cc3)c2C#N)cc1` showed an inhibition of growth at 10 µM [1] of 63.3%, an inhibition of growth at 10 µM [2] of 75.7% and an inhibition of growth at 10 µM [3] of 63.3%. For the same molecule, the inhibition of growth at 10 µM [4] was 24.5%, the IC50 [5] was > 100 µM and the inhibition of growth at 10 µM [6] was 37%. The inhibition of growth at 10 µM [7] was 34.9%, the inhibition of growth at 10 µM [8] was 27.2% and the inhibition of growth at 10 µM [9] was 29.9%. For the same molecule, the inhibition of growth at 10 µM [10] was 26.2%, the inhibition of growth at 10 µM [11] was 53% and the inhibition of growth at 10 µM [12] was 10.3%. The inhibition of growth at 10 µM [13] was 28.6%, the inhibition of growth at 10 µM [14] was 34.6% and the inhibition of growth at 10 µM [15] was 12.6%. The inhibition of growth at 10 µM [16] was 22.8%, the inhibition of growth at 10 µM [17] was 7.4% and the inhibition of growth at 10 µM [18] was 23.3%. For the same molecule, the inhibition of growth at 10 µM [19] was 25.1%, the inhibition of growth at 10 µM [20] was 16.2% and the IC50 [21] was > 100 µM. For the same molecule, the inhibition of growth at 10 µM [22] was 13.4%, the inhibition of growth at 10 µM [23] was 13.7% and the inhibition of growth at 10 µM [24] was 48.5%. The inhibition of growth at 10 µM [25] was 65.4% and the inhibition of growth at 10 µM [26] was 39.3%.
